Assay results: patent publication US5447919A, “Sulfated oligosaccharides” (Hoffmann-La Roche Inc., priority 1991, dated 1995)

Tests used:
[1] = system: smooth muscle cells of rats; test: Anti-proliferative activity in smooth muscle cell culture (% inhibition of growth after 7 days); format: cell-based, rat; conditions: for Anti-proliferative activity % inhibition: rat smooth muscle cells, 7 days, test substance 100 mg/ml as printed (100 μl/ml), vs non-inhibited growth
Method: The anti-proliferative activity of the substances was determined in cell cultures as follows: smooth muscle cells of rats (cultivated in DMEM with 10% FCS at 37° C. and 5% CO2) were applied to cell culture plates with a density of 8×10^3 cells/well. After 4 hours, the number of adhered cells was determined and the substances to be tested ([…]) were added. Cells to which test substance was not added served as a comparison and heparin ([…]) served as a positive control. The cells were incubated for 7 days and then the cell number was determined. The antiproliferative activity of the individual substances was calculated as the % inhibition in comparison to non-inhibited growth: [formula] wherein cell number(d=0) =cell number after 4 h […]
cell number(-) =cell number to which test substances was not added, after 7 days. cell number (inhib) =cell number with […] of the test substance

citrated human plasma = test: aPTT (activated partial thromboplastin time) Test; format: biochemical; conditions: concentration which leads to a coagulation time double the control value
Method: (§1) The blood coagulation-ihibiting activity was determined as follows:
aPTT (activated partial thromboplastin time) Test (see Walenga et al., CRC Critical Reviews in Laboratory Sciences 22 (4) 361-389(1986)): 100 μl of citrated human plasma, which contains various concentrations of test compound, are incubated at 37° C. for 8 minutes with 100 μl of Activated Thrombofax (Ortho Diagnostics, Raritan, N.J., U.S.A.). 100 μl of prewarmed 25 mM calcium chloride solution are then added and the coagulation time is measured in a Fibrometer Coagulation Timer (Becton, Dickinson Basle).
(§2) The activity of the test compound is given as the IC50, which is that concentration [μg/ml] which leads to a coagulation time which is double the control value.

Factor Xa = Factor Xa (Bos taurus, UniProt P00743); test: anti-Xa Clotting Assay; format: biochemical; conditions: concentration which leads to a coagulation time double the control value; citrated plasma
Sequence of Factor Xa (P00743 234-492 limits assumed): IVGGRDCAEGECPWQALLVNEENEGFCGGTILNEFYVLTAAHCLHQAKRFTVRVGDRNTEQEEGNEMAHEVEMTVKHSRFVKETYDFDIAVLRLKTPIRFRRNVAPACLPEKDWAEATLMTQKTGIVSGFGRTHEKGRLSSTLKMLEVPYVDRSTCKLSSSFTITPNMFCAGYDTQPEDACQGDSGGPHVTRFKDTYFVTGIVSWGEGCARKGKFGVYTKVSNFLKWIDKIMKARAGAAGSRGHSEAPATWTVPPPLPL
Sequence of Factor Xa (P00743 41-180 partner limits assumed): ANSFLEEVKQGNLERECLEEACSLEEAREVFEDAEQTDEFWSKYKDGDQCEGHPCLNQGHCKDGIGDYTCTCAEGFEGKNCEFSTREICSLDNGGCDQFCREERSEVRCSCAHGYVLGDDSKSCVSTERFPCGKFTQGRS
Method: as §1
anti-Xa Clotting Assay: 25 μl of citrated plasma having various concentrations of test compound are mixed with 75 μl of Factor Xa (Diagnostic Reagents, Thame, Oxon, Great Britain) diluted 1:100 in 0.63% citrate buffer (pH 7.3) which contains 41 mM imidazole, 82 mM NaCl and 0.1% albumin. After warming to 37° C. for 2 minutes, 200 μl of a 1:1 mixture of Factor X Deficient Plasma (Diagnostic Reagents) and Platelet Substitute (Diagnostic Reagents) are added and the mixture is incubated at 37° C. for 20 seconds. After the addition of 100 μl of pre-warmed 50 mM calcium chloride solution, the coagulation time is measured in a Fibrometer.
as §2

Substance | Anti-proliferative activity % inhibition [1] [%] | Anti-coagulation activity IC50, Coagulation inhibition aPTT (citrated human plasma) [µg/mL] | Anti-coagulation activity IC50, Coagulation inhibition Xa (Factor Xa) [µg/mL] | anti-proliferative activity (in words) ([1]; summary of test results of Table 1)
sulfated raffinose [Example 1] | 41 | 27 | > 1000 | 
Heparin [reference compound] |  |  |  | anti-proliferatively active
sulfated melezitese [Example 2] | 25 | 150 | 250 | 
